Converted amounts (≈) assume the structure as drawn. Read-outs that look alike come from different tables or passages of the source.
Key:
Assay type in all cases: cell-based
Pseudomonas aeruginosa = assay: Broth microdilution MIC (Example 6); settings: Pseudomonas aeruginosa, read-out: MIC
Description: (§1) Test Compounds: The test agents BisEDT (MB-1-B3; Lot No. ED268-1-11-01), MB-2B, and MB-6 were stored at room temperature, in the dark, until assayed.
(§2) For testing daptomycin, calcium was supplemented with […] Ca^2+, resulting in a final concentration of […] Ca^2+ (2, 3).
(§3) MIC Assay Procedure: MIC values were determined using a broth microdilution procedure described by CLSI (2, 3).
(§4) The Biomek 2000 was then used to make 2-fold serial dilutions in the mother plates from column 1 through column 11. The wells of column 12 contained no drug and served as the organism growth control wells for the assay.
(§5) The test panels were prepared on the Biomek FX instrument which transferred 2 μL of drug solution from each well of a mother plate to the corresponding well of each daughter plate in a single step.
(§6) A standardized inoculum of each test organism was prepared per CLSI methods to equal a 0.5 McFarland standard, followed by a dilution of 1:20. The plates were then inoculated with 10 μL of the diluted inoculum using the Biomek 2000 from low to high drug concentration resulting in a final concentration of approximately 5×10^5 CFU/mL.
(§7) Plates were stacked 3-4 high, covered with a lid on the top plate, placed into plastic bags, and incubated at 35° C. for 16 to 20 hr (vancomycin was read for S. aureus after 24 hr incubation time). The MIC was recorded as the lowest concentration of drug that inhibited visible growth of the organism.

Klebsiella pneumoniae = assay: Broth microdilution MIC (Example 6); settings: Klebsiella pneumoniae, read-out: MIC
Description: as §1, §2, §3, §4, §5, §6, §7

Escherichia coli = assay: Broth microdilution MIC (Example 6); settings: Escherichia coli, read-out: MIC
Description: as §1, §2, §3, §4, §5, §6, §7

Acinetobacter baumannii = assay: Broth microdilution MIC (Example 6); settings: Acinetobacter baumannii, read-out: MIC
Method in brief: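 CLSI broth microdilution in cation-adjusted Mueller Hinton broth, test agents 0.06-64 μg/mL from DMSO stocks, inoculum approx. 5×10^5 CFU/mL. Incubation 35° C for 16–20 hr; MIC taken as lowest concentration inhibiting visible growth.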

[1] = tested on: relevant ATCC QC organisms; assay: Broth microdilution MIC, QC (Example 6); settings: read-out: MIC
Method in brief: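 QC strains were tested per CLSI broth microdilution in cation-adjusted Mueller Hinton broth, with Ca2+ supplemented for daptomycin, at about 5×10^5 CFU/mL. Incubation was at 35° C for 16–20 hr, or 24 hr for vancomycin against S. aureus. The MIC was the lowest concentration inhibiting visible growth.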

[2] = P. aeruginosa isolate CDC 230, β-lactamase type VIM/OXA
[3] = P. aeruginosa isolate CDC 231, β-lactamase type KPC/OXA
[4] = P. aeruginosa isolate CDC 241, β-lactamase type IMP/OXA
[5] = P. aeruginosa isolate CDC 246, β-lactamase type NDM/OXA
[6] = P. aeruginosa isolate CDC 250, β-lactamase type NDM/OXA
[7] = P. aeruginosa isolate CDC 356, β-lactamase type KPC
[8] = P. aeruginosa isolate CDC 439, β-lactamase type IMP
[9] = P. aeruginosa isolate CDC 444, β-lactamase type VIM
[10] = P. aeruginosa isolate CDC 457, β-lactamase type VIM
[11] = P. aeruginosa isolate CDC 516, β-lactamase type KPC/AmpC
[12] = P. aeruginosa isolate CDC 518, β-lactamase type KPC/AmpC
[13] = ATCCBAA1705, K. pneumoniae ATCC BAA-1705, ESBL/KPC
[14] = K. pneumoniae CDC 113, ESBL/KPC
[15] = K. pneumoniae CDC 115, ESBL/KPC
[16] = K. pneumoniae CDC 120, ESBL/KPC
[17] = K. pneumoniae CDC 126, ESBL/KPC
[18] = K. pneumoniae CDC 129, ESBL/KPC
[19] = K. pneumoniae CDC 135, ESBL/VIM
[20] = K. pneumoniae CDC 138, ESBL/NDM
[21] = K. pneumoniae CDC 158, ESBL/NDM/OXA
[22] = ATCC35218, E. coli ATCC 35218, ESBL
[23] = ATCCBAA2471, E. coli ATCC BAA-2471, NDM
[24] = A. baumannii isolate CDC 273, β-lactamase type ESBL/OXA
[25] = A. baumannii isolate CDC 274, β-lactamase type ESBL/OXA
[26] = A. baumannii isolate CDC 275, β-lactamase type ESBL/OXA
[27] = A. baumannii isolate CDC 277, β-lactamase type ESBL/OXA
[28] = A. baumannii isolate CDC 284, β-lactamase type ESBL/OXA
[29] = A. baumannii isolate CDC 307, β-lactamase type OXA
[30] = A. baumannii isolate CDC 308, β-lactamase type ESBL/OXA
[31] = A. baumannii isolate CDC 311, β-lactamase type OXA
[32] = A. baumannii isolate CDC 312, β-lactamase type OXA
[33] = A. baumannii isolate CDC 313, β-lactamase type ESBL/OXA
[34] = NCTC13304, A. baumannii isolate NCTC 13304, β-lactamase type OXA
[35] = Escherichia coli, ATCC25922, E. coli ATCC 25922
[36] = Escherichia coli, ATCC35218, E. coli ATCC 35218
[37] = Klebsiella pneumoniae, ATCCBAA1705, K. pneumoniae ATCC BAA-1705
[38] = Pseudomonas aeruginosa, ATCC27853, P. aeruginosa ATCC 27853

With `CC(C)(O/N=C(\C(=O)N[C@@H]1C(=O)N2C(C(=O)[O-])=C(C[n+]3ccccc3)CS[C@H]12)c1csc(N)n1)C(=O)O` [Ceftazidime] the MIC (Pseudomonas aeruginosa; [2]) was 64 µg/mL (≈ 117 µM), the MIC (Pseudomonas aeruginosa; [3]) was > 64 µg/mL and the MIC (Pseudomonas aeruginosa; [4]) was > 64 µg/mL. For the same compound, the MIC (Pseudomonas aeruginosa; [5]) was > 64 µg/mL, the MIC (Pseudomonas aeruginosa; [6]) was > 64 µg/mL and the MIC (Pseudomonas aeruginosa; [7]) was 64 µg/mL (≈ 117 µM). For the same compound, the MIC (Pseudomonas aeruginosa; [8]) was > 64 µg/mL, the MIC (Pseudomonas aeruginosa; [9]) was 32 µg/mL (≈ 58.5 µM) and the MIC (Pseudomonas aeruginosa; [10]) was > 64 µg/mL. For the same compound, the MIC (Pseudomonas aeruginosa; [11]) was 64 µg/mL (≈ 117 µM), the MIC (Pseudomonas aeruginosa; [12]) was 32 µg/mL (≈ 58.5 µM) and the MIC (Klebsiella pneumoniae; [13]) was > 64 µg/mL. For the same compound, the MIC (Klebsiella pneumoniae; K. pneumoniae CDC 112, KPC) was > 64 µg/mL, the MIC (Klebsiella pneumoniae; [14]) was > 64 µg/mL and the MIC (Klebsiella pneumoniae; [15]) was > 64 µg/mL. The MIC (Klebsiella pneumoniae; [16]) was > 64 µg/mL, the MIC (Klebsiella pneumoniae; [17]) was 4 µg/mL (≈ 7.32 µM) and the MIC (Klebsiella pneumoniae; [18]) was > 64 µg/mL. For the same compound, the MIC (Klebsiella pneumoniae; [19]) was > 64 µg/mL, the MIC (Klebsiella pneumoniae; [20]) was > 64 µg/mL and the MIC (Klebsiella pneumoniae; [21]) was > 64 µg/mL. The MIC (Klebsiella pneumoniae; K. pneumoniae MMX 9029, ESBL) was 4 µg/mL (≈ 7.32 µM), the MIC (Escherichia coli; [22]) was 0.12 µg/mL (≈ 0.22 µM) and the MIC (Escherichia coli; [23]) was > 64 µg/mL. The MIC (Escherichia coli; E. coli CDC 114, ESBL/KPC) was > 64 µg/mL, the MIC (Escherichia coli; E. coli CDC 118, ESBL/NDM) was > 64 µg/mL and the MIC (Escherichia coli; E. coli CDC 435, NDM) was > 64 µg/mL. For the same compound, the MIC (Escherichia coli; E. coli CDC 451, KPC) was 64 µg/mL (≈ 117 µM), the MIC (Escherichia coli; E. coli CDC 503, ESBL/NDM) was > 64 µg/mL and the MIC (Escherichia coli; E. coli MMX 5745, KPC) was 32 µg/mL (≈ 58.5 µM). The MIC (Escherichia coli; E. coli MMX 5755, ESBL) was > 64 µg/mL, the MIC (Escherichia coli; E. coli MMX 5756, ESBL) was > 64 µg/mL and the MIC (Escherichia coli; E. coli MMX 5758, ESBL) was 16 µg/mL (≈ 29.3 µM). For the same compound, the MIC (Acinetobacter baumannii; [24]) was 64 µg/mL, the MIC (Acinetobacter baumannii; [25]) was > 64 µg/mL and the MIC (Acinetobacter baumannii; [26]) was > 64 µg/mL. The MIC (Acinetobacter baumannii; [27]) was > 64 µg/mL, the MIC (Acinetobacter baumannii; [28]) was 64 µg/mL and the MIC (Acinetobacter baumannii; [29]) was 64 µg/mL. For the same compound, the MIC (Acinetobacter baumannii; [30]) was 64 µg/mL, the MIC (Acinetobacter baumannii; [31]) was > 64 µg/mL and the MIC (Acinetobacter baumannii; [32]) was > 64 µg/mL. The MIC (Acinetobacter baumannii; [33]) was > 64 µg/mL, the MIC (Acinetobacter baumannii; [34]) was > 64 µg/mL and the MIC [1, 35] was 0.25 µg/mL. For the same compound, the MIC [1, 36] was 0.12 µg/mL, the MIC [1, 37] was > 64 µg/mL and the MIC [1, 38] was 2 µg/mL.

`C[C@H]1COc2c(N3CCN(C)CC3)c(F)cc3c(=O)c(C(=O)O)cn1c23` [Levofloxacin] was tested, and the MIC (Pseudomonas aeruginosa; [2]) was 8 µg/mL (≈ 22.1 µM), the MIC (Pseudomonas aeruginosa; [3]) was > 8 µg/mL and the MIC (Pseudomonas aeruginosa; [4]) was 8 µg/mL (≈ 22.1 µM). The MIC (Pseudomonas aeruginosa; [5]) was > 8 µg/mL, the MIC (Pseudomonas aeruginosa; [6]) was > 8 µg/mL and the MIC (Pseudomonas aeruginosa; [7]) was 0.12 µg/mL (≈ 0.332 µM). For the same compound, the MIC (Pseudomonas aeruginosa; [8]) was 8 µg/mL (≈ 22.1 µM), the MIC (Pseudomonas aeruginosa; [9]) was 8 µg/mL (≈ 22.1 µM) and the MIC (Pseudomonas aeruginosa; [10]) was > 8 µg/mL. The MIC (Pseudomonas aeruginosa; [11]) was 0.25 µg/mL (≈ 0.692 µM), the MIC (Pseudomonas aeruginosa; [12]) was > 8 µg/mL and the MIC (Klebsiella pneumoniae; [13]) was > 8 µg/mL. For the same compound, the MIC (Klebsiella pneumoniae; K. pneumoniae CDC 112, KPC) was 4 µg/mL (≈ 11.1 µM), the MIC (Klebsiella pneumoniae; [14]) was 4 µg/mL (≈ 11.1 µM) and the MIC (Klebsiella pneumoniae; [15]) was > 8 µg/mL. For the same compound, the MIC (Klebsiella pneumoniae; [16]) was > 8 µg/mL, the MIC (Klebsiella pneumoniae; [17]) was 0.015 µg/mL (≈ 0.0415 µM) and the MIC (Klebsiella pneumoniae; [18]) was > 8 µg/mL. The MIC (Klebsiella pneumoniae; [19]) was > 8 µg/mL, the MIC (Klebsiella pneumoniae; [20]) was > 8 µg/mL and the MIC (Klebsiella pneumoniae; [21]) was 4 µg/mL (≈ 11.1 µM). For the same compound, the MIC (Klebsiella pneumoniae; K. pneumoniae MMX 9029, ESBL) was 0.12 µg/mL (≈ 0.332 µM), the MIC (Escherichia coli; [22]) was ≤ 0.008 µg/mL and the MIC (Escherichia coli; [23]) was > 8 µg/mL. For the same compound, the MIC (Escherichia coli; E. coli CDC 114, ESBL/KPC) was 4 µg/mL (≈ 11.1 µM), the MIC (Escherichia coli; E. coli CDC 118, ESBL/NDM) was 8 µg/mL (≈ 22.1 µM) and the MIC (Escherichia coli; E. coli CDC 435, NDM) was > 8 µg/mL. For the same compound, the MIC (Escherichia coli; E. coli CDC 451, KPC) was > 8 µg/mL, the MIC (Escherichia coli; E. coli CDC 503, ESBL/NDM) was > 8 µg/mL and the MIC (Escherichia coli; E. coli MMX 5745, KPC) was 8 µg/mL (≈ 22.1 µM). The MIC (Escherichia coli; E. coli MMX 5755, ESBL) was 8 µg/mL (≈ 22.1 µM), the MIC (Escherichia coli; E. coli MMX 5756, ESBL) was 4 µg/mL (≈ 11.1 µM) and the MIC (Escherichia coli; E. coli MMX 5758, ESBL) was 8 µg/mL (≈ 22.1 µM). For the same compound, the MIC (Acinetobacter baumannii; [24]) was > 8 µg/mL, the MIC (Acinetobacter baumannii; [25]) was 8 µg/mL and the MIC (Acinetobacter baumannii; [26]) was 4 µg/mL. For the same compound, the MIC (Acinetobacter baumannii; [27]) was 8 µg/mL, the MIC (Acinetobacter baumannii; [28]) was 8 µg/mL and the MIC (Acinetobacter baumannii; [29]) was 8 µg/mL. For the same compound, the MIC (Acinetobacter baumannii; [30]) was 4 µg/mL, the MIC (Acinetobacter baumannii; [31]) was 2 µg/mL and the MIC (Acinetobacter baumannii; [32]) was 2 µg/mL. For the same compound, the MIC (Acinetobacter baumannii; [33]) was 2 µg/mL, the MIC (Acinetobacter baumannii; [34]) was 1 µg/mL and the MIC [1, 35] was ≤ 0.008 µg/mL. For the same compound, the MIC [1, 36] was ≤ 0.008 µg/mL, the MIC [1, 37] was > 8 µg/mL and the MIC [1, 38] was 0.5 µg/mL. The MIC ([1]; Staphylococcus aureus, ATCC29213, S. aureus ATCC 29213) was 0.06 µg/mL.
